Measured values as given in patent US4119724A, “Fungicidal compositions containing phosphorous acid and derivatives thereof” (Pepro, priority 1973, dated 1978).

Experiments:
Solubility in water = format: physicochemical
Plasmopara viticola [1] = assay: In vivo test on vine plants, preventive treatment; conditions: 0.5 g/l, leaves sprayed 48 hours before contamination, inspected 9 days after infestation
Plasmopara viticola [2] = assay: In vivo test on vine plants, treatment after contamination; conditions: 1 g/l, inspected 9 days after contamination
Plasmopara viticola [3] = assay: Systemic test by root absorption on vine mildew; format: in vivo; conditions: 0.5 g/l, absorbed by the roots, assessed after about 9 days
Plasmopara viticola [4] = assay: Open-air test on vine stocks; format: in vivo; conditions: 2 g/l
Experimental: Groups of vine stocks (Gamay variety) are treated on the 27th June, 4th, 11th and 18th July, 1st and 7th August, with a spray of wettable powder containing 50% of an active material, namely compound 13 and manganese ethylene-1,2-bis-dithiocarbamate or manebe.
It should be noted that, in August and September, the mildew Plasmopara viticola was extremely virulent on account of heavy rainfall. For a uniform dose of 2 g/l, the results are expressed as percentage protection in relation to a contaminated but untreated control.

Rhizoctonia solani = assay: In vitro test on mycelian growth (Agar Plate dilution), Rhizoctonia; format: cell-based; conditions: 0.25 g/l, 4 days at 20° C
Experimental: (§1) In vitro Test on Mycelian Growth
(§2) The compounds according to the invention are studied for their effect on the mycelian growth of the following fungi:
Rhizoctonia solani, responsible for neck canker
(§3) The "Agar Plate dilution" method is used for each test. A mixture of gelose and an acetone solution or a wettable powder containing the material to be tested in a concentration of 0.25 g/l is poured into a Petri dish at a temperature of approximately 50° C.
(§4) The gelose-containing mixture is then allowed to solidify, after which mycelian culture discs of the fungus are placed on it.
(§5) After 4 days at 20° C., the surface area of the inhibition zone observed is evaluated and expressed as a percentage of the inoculated surface area.

Pythium de Baryanum = assay: In vitro test on mycelian growth (Agar Plate dilution), Pythium; format: cell-based; conditions: 0.25 g/l, 4 days at 20° C
Experimental: as §1, §2, §3, §4, §5

Piricularia oryzae = format: cell-based; conditions: 0.25 g/l, 4 days at 20° C
Botrytis cinerea = assay: In vitro test on mycelian growth (Agar Plate dilution), Botrytis; format: cell-based; conditions: 0.25 g/l, 4 days at 20° C
Experimental: as §1, §2
Botrytis cinerea, responsible for grey rot
as §3, §4, §5

Phytophtora parasitica = assay: Pineapple test; format: in vivo; conditions: 0.5 g/l spray 48 hours after contamination, after 30 days
Experimental: Pineapple seedlings are contaminated with Phytophtora parasitica and then treated after 48 hours by spraying with a solution containing 0.5 g/l of calcium phosphite.

Phytophtora cinnamomi = assay: Avocado test; format: in vivo; conditions: soil sprayed with 3 g/l solution, after 20 days
Excerpt: Avocado seedlings (variety Persea indica) are planted in a soil infested with Phytophtora cinnamomi, after which the soil is sprayed with a solution containing 3 g/l of ammonium phosphite. Some seedlings are left untreated as controls. Under these conditions, it is found after 20 days that the roots of the controls are completely dead, whilst 90% of the treated seedlings are healthy.

[5] = inspection date 2/10 (approx. 2 months after last treatment)
[6] = inspection date 3/9 (approx. 1 month after last treatment)
[7] = inspection date 20/10 (approx. 2.5 months after last treatment)

Molecule | protection (preventive treatment) (Plasmopara viticola [1]) | stop of the development of mildew (treatment after contamination) (Plasmopara viticola [2]) | protection by root absorption (systemic) (Plasmopara viticola [3]) | further results
CC(C)c1cccc(N)c1 [Compound 27] | good protection | – | – | solubility in water (Solubility in water): insoluble
CC(C)c1ccc(N)cc1 [Compound 26] | good protection | completely stop the development of mildew | – | solubility in water (Solubility in water): insoluble
O=[PH]([O-])[O-].O=[PH]([O-])[O-].O=[PH]([O-])[O-].[Al+3].[Al+3] [Compound 19, neutral aluminium phosphite] | total protection | – | total protection | –
C1COCCN1 [Compound 25] | good protection | completely stop the development of mildew | total protection | solubility in water (Solubility in water): insoluble
O=[PH]([O-])[O-].[Zn+2] [Compound 17, neutral zinc(II)phosphite] | total protection | completely stop the development of mildew | total protection | –
S=C([S-])NCCNC(=S)[S-].[Mn+2] [Manebe, manganese ethylene-1,2-bis-dithiocarbamate, reference compound] | – | – | – | percentage protection in relation to contaminated untreated control (Plasmopara viticola [4]; [5]): 62%; percentage protection in relation to contaminated untreated control (Plasmopara viticola [4]; [6]): 96%; percentage protection in relation to contaminated untreated control (Plasmopara viticola [4]; [7]): 15%
NC1CCCCC1 [Compound 23] | – | – | good protection | solubility in water (Solubility in water): insoluble
NCCO.O=[PH](O)O [Compound 8, acid monoethanolamine phosphite] | – | – | – | inhibition of mycelian growth (inhibition zone as percentage of the inoculated surface area) (Rhizoctonia solani): 60%; inhibition of mycelian growth (inhibition zone as percentage of the inoculated surface area) (Pythium de Baryanum): 51%
trivalent iron phosphite [Compound 15] | good protection | – | – | –
cuprous phosphite [Compound 20] | total protection | – | – | –
O=[PH]([O-])[O-].[Ca+2] [Compound 10, neutral calcium phosphite] | total protection | – | good protection | –
O=[PH]([O-])[O-].[Mg+2] [Compound 18, neutral magnesium phosphite] | good protection | – | – | –
Nc1ccccc1 [Compound 22] | good protection | completely stop the development of mildew | total protection | solubility in water (Solubility in water): insoluble
manganous phosphite [Compound 16] | total protection | completely stop the development of mildew | – | –
neutral nickel (II)phosphite [Compound 14] | total protection | completely stop the development of mildew | – | inhibition of mycelian growth (inhibition zone as percentage of the inoculated surface area) (Rhizoctonia solani): 78%; inhibition of mycelian growth (inhibition zone as percentage of the inoculated surface area) (Piricularia oryzae): 59%; inhibition of mycelian growth (inhibition zone as percentage of the inoculated surface area) (Botrytis cinerea): 48%
O=[PH]([O-])[O-].[Ba+2] [Compound 12, neutral barium phosphite] | total protection | – | total protection | –
O=[PH](O)O.c1c[nH]cn1 [Compound 21, acid phosphite of 1,3-imidazole] | good protection | completely stop the development of mildew | total protection | –
neutral copper(II)phosphite [Compound 13] | total protection | – | good protection | percentage protection in relation to contaminated untreated control (Plasmopara viticola [4]; [5]): 66%; percentage protection in relation to contaminated untreated control (Plasmopara viticola [4]; [6]): 94%; percentage protection in relation to contaminated untreated control (Plasmopara viticola [4]; [7]): 50%
calcium phosphite | – | – | – | inhibition of the fungus in treated seedlings (Phytophtora parasitica): completely inhibited
N.N.O.O=[P+](O)O [ammonium phosphite] | – | – | – | treated seedlings healthy (Phytophtora cinnamomi): 90%
